Measurements taken from US12527849B2, “Apparatus for determining administration form of a composition of an engineered virus-based nanoparticle for a treatment of an autoimmune condition” (Diamante Srl, priority 2021, dated 2026).

System: TNF-α
Assay: Cytokine ELISA in CIA mice, day 60: TNF-α
Assay type: in vivo
Source text: With continued reference to FIG. 1, in some embodiments, administration 116 may be done to an animal. As a non-limiting example, the animal may include a mouse, a fish, a rabbit, human, and the like. As a non-limiting example, administration 116 of composition of the engineered virus-based nanoparticle for a treatment of an autoimmune condition may be done to dilute, brown, and non-agouti (DBA) mice based on their susceptibility to collagen-induced arthritis (CIA). Female DBA/1 mice 6 to 8 weeks of age may be maintained under specific pathogen-free conditions. CIA may be induced by the intradermal tail base injection of 100 μg of chicken type II collagen (Sigma-Aldrich) as previously described. Five mice per group may be immunized on days 0 and 21 to induce arthritis. The onset of disease may be confirmed on the day that swelling or erythema may be observed in any paw, typically 4 to 10 days after the second immunization. […] CIA may be assessed using a macroscopic score system based on the visual identification of arthritic limbs. The clinical severity of arthritis may be evaluated as follows: Each mouse may be inspected every 2 to 3 days for three different parameters: (i) swelling of the hind ankle and foot, measured with calipers; (ii) erythema of each leg; and (iii) swelling of the fingers. The RA index for each mouse was expressed as the mean of the three scores from the individual parameters. At the end of the experiment (60 days), we determined the proportion of CD25+Foxp3+ cells in the lymph nodes and measured cytokine titers in the lymph nodes, joints, and serum.
With continued reference to FIG. 1, in some embodiments, processor 104 may determine critical administration 124 as a function of a cytokine profile and a proportion of CD25^+ Foxp3^+ cells. […] In some embodiments, to quantify cytokines in DBA mice, joint tissues may be pulverized and resuspended in 1 ml of lysis medium per 100-mg joint weight for 60 min at 37′C, followed by centrifugation to remove debris. […]

C[C@@H]1C[C@H]2[C@@H]3CCC4=CC(=O)C=C[C@]4(C)[C@@]3(F)[C@@H](O)C[C@]2(C)[C@@]1(O)C(=O)CO [Dexamethasone, dexamethasone]
TNF-α J (joint supernatant, CIA mice, day 60, mean n=3): 49.20 pg/mL | TNF-α LN (lymph node supernatant, CIA mice, day 60, mean n=3): 107.90 pg/mL | TNF-α S (serum pooled from five CIA mice, day 60): 24.2 pg/mL
